In patent publication US11365204B2, “Substituted dihydrothienopyrimidines and their use as phosphodiesterase inhibitors” (UNION therapeutics A/S, priority 2017, dated 2022):

Legend:
[1] = molecular target: human PDE4D catalytic domain (UniProt no. Q08499 [S380-L740]) (Homo sapiens (Human), UniProt Q08499); assay: PDE4 assay (TR-FRET, cAMP hydrolysis); format: biochemical; conditions: read-out: PDE4 IC50 range
Summary of the method: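 The human PDE4D catalytic domain (S380-L740) was incubated with unlabelled plus FAM-labelled cAMP and titrated compound, briefly. Product AMP was detected by Tb-nanoparticle TR-FRET. IC50 (nM) came from Tb-normalized signal scaled between DMSO and 10 microM reference-inhibitor controls.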

[2] = test system: Human peripheral blood mononuclear cells (PBMC); assay: TNF-α release from LPS-stimulated PBMC; format: cell-based; conditions: Lipopolysaccharide 1 microg/ml, 18 hours, AlphaLISA, read-out: TNF-α IC50 range
Summary of the method: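 Thawed human PBMC in serum-free buffer with 0.5% human serum albumin were stimulated with 1 microg/ml LPS alongside titrated compound for 18 h at 37 °C. Supernatant TNFα was measured by AlphaLISA at 615 nm, and IC50 was derived relative to LPS-only and 10 microM reference PDE4 inhibitor controls.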

human PDE4D catalytic domain, sequence (Q08499 380-740): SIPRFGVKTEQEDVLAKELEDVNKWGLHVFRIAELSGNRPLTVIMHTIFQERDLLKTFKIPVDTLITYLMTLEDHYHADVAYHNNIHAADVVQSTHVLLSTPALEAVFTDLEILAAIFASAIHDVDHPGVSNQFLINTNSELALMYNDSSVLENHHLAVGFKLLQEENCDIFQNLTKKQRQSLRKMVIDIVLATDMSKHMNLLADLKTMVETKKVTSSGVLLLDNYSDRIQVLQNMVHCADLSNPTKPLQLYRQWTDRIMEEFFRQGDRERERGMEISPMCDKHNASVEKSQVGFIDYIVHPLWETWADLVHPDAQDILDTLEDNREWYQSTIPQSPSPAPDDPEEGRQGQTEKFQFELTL

In the case of `CN(c1nc(N2CC(OC(=O)c3cnn(C)c3)C2)nc2c1[S+]([O-])CC2)C1CCOCC1` (stereo not shown) [Example 18, [1-[4-[methyl(tetra-hydropyran-4-yl)amino]-5-oxido-6,7-dihydro-thieno[3,2-d]pyrimidin-5-ium-2-yl]azetidin-3-yl] 1-methylpyrazole-4-carboxylate], the IC50 [1] is reported as < 100 nM and the IC50 [2] is reported as < 100 nM.

`Cc1cc(C(=O)OC2CN(c3nc4c(c(N(C)C5CCOCC5)n3)[S+]([O-])CC4)C2)nn1C` (stereo not shown) [Example 31, [1-[4-[methyl(tetra-hydropyran-4-yl)amino]-5-oxido-6,7-dihydro-thieno[3,2-d]pyrimidin-5-ium-2-yl]azetidin-3-yl] l,5-dimethylpyrazole-3-carboxylate] was tested, and the IC50 [1] was < 100 nM and the IC50 [2] was < 100 nM.

Compound `COCCC(=O)OC1CN(c2nc3c(c(N(C)C4CCOCC4)n2)[S+]([O-])CC3)C1` (stereo not shown) [Example 13, [1-[4-[methyl(tetra-hydropyran-4-yl)amino]-5-oxido-6,7-dihydro-thieno[3,2-d]pyrimidin-5-ium-2-yl]azetidin-3-yl] 3-methoxypropanoate] has an IC50 [1] of 100 to 500 nM and an IC50 [2] of 100 to 500 nM.

In the case of `CN(c1nc(N2CC(OC(=O)c3ccn(C)n3)C2)nc2c1[S+]([O-])CC2)C1CCOCC1` (stereo not shown) [Example 17, [1-[4-[methyl(tetra-hydropyran-4-yl)amino]-5-oxido-6,7-dihydro-thieno[3,2-d]pyrimidin-5-ium-2-yl]azetidin-3-yl] 1-methylpyrazole-3-carboxylate], the IC50 [1] is reported as < 100 nM and the IC50 [2] is reported as < 100 nM.

`Cc1ncc(C(=O)OC2CN(c3nc4c(c(N(C)C5CCOCC5)n3)[S+]([O-])CC4)C2)cn1` (stereo not shown) [Example 27, [1-[4-[methyl(tetra-hydropyran-4-yl)amino]-5-oxido-6,7-dihydro-thieno[3,2-d]pyrimidin-5-ium-2-yl]azetidin-3-yl] 2-methylpyrimidine-5-carboxylate] was tested, and the IC50 [1] was < 100 nM and the IC50 [2] was < 100 nM.

For `CC(=O)N1CCC(C(=O)OC2CN(c3nc4c(c(N(C)C5CCOCC5)n3)[S+](O)CC4)C2)CC1` (stereo not shown) [Example 49, [1-[4-[methyl(tetra-hydropyran-4-yl)amino]-5-oxido-6,7-dihydro-thieno[3,2-d]pyrimidin-5-ium-2-yl]azetidin-3-yl] 1-acetylpiperidine-4-carboxylate], the IC50 [1] was < 100 nM and the IC50 [2] was < 100 nM.

`CN(c1nc(N2CC(OC(=O)c3cnsc3)C2)nc2c1[S+]([O-])CC2)C1CCOCC1` (stereo not shown) [Example 3, [1-[4-[Methyl(tetrahydropyran-4-yl)amino]-5-oxido-6,7-dihydrothieno[3,2-d]pyrimidin-5-ium-2-yl]azetidin-3-yl] isothiazole-4-carboxylate] was tested, and the IC50 [1] was < 100 nM and the IC50 [2] was < 100 nM.

With `CCS(=O)(=O)c1cccc(C(=O)OC2CN(c3nc4c(c(N(C)C5CCOCC5)n3)[S+]([O-])CC4)C2)c1` (stereo not shown) [Example 56, [1-[4-[methyl(tetra-hydropyran-4-yl)amino]-5-oxido-6,7-dihydro-thieno[3,2-d]pyrimidin-5-ium-2-yl]azetidin-3-yl] 3-ethylsulfonylbenzoate] the IC50 [1] was < 100 nM and the IC50 [2] was < 100 nM.

With `COC(=O)N1CCC(C(=O)OC2CN(c3nc4c(c(N(C)C5CCOCC5)n3)[S+](O)CC4)C2)CC1` (stereo not shown) [Example 52, O1-methyl O4-[1-[4-[methyl(tetrahydro-pyran-4-yl)amino]-5-oxido-6,7-dihydro-thieno[3,2-d]pyrimidin-5-ium-2-yl]azetidin-3-yl] piperidine-1,4-dicarboxylate] the IC50 [1] was < 100 nM and the IC50 [2] was < 100 nM.

`O=C(OC1CN(c2nc3c(c(NC4CC5(COC5)C4)n2)[S+]([O-])CC3)C1)C1CCOCC1` (stereo not shown) [Example 67, [1-[4-(6-oxaspiro[3.3]-heptan-2-ylamino)-5-oxido-6,7-dihydro-thieno[3,2-d]pyrimidin-5-ium-2-yl]azetidin-3-yl] tetrahydropyran-4-carboxylate] was tested, and the IC50 [1] was < 100 nM and the IC50 [2] was < 100 nM.

`O=C(OC1CN(c2nc3c(c(NC4CC5(COC5)C4)n2)[S+]([O-])CC3)C1)c1cnsc1` (stereo in doubt) [Example 68, [1-[(5R)-4-(6-oxaspiro-[3.3]heptan-2-ylamino)-5-oxido-6,7-dihydrothieno-[3,2-d]pyrimidin-5-ium-2-yl]azetidin-3-yl] isothia-zole-4-carboxylate] was tested, and the IC50 [1] was < 100 nM and the IC50 [2] was < 100 nM.

With `CN(c1nc(N2CC(OC(=O)c3cscn3)C2)nc2c1[S+]([O-])CC2)C1CCOCC1` (stereo in doubt) [Example 6, [1-[(5R)-4-[Methyl(tetrahydropyran-4-yl)amino]-5-oxido-6,7-dihydrothieno[3,2-d]pyrimidin-5-ium-2-yl]azetidin-3-yl] thiazole-4-carboxylate] the IC50 [1] was < 100 nM and the IC50 [2] was < 100 nM.

For `CC(=O)N1CC[C@H](Nc2nc(N3CC(OC(=O)C4CCOCC4)C3)nc3c2[S@+](O)CC3)C1` [Example 74, [1-[4-[[(3S)-1-acetyl-pyrrolidin-3-yl]amino]-5-oxido-6,7-dihydro-thieno[3,2-d]pyrimidin-5-ium-2-yl]azetidin-3-yl]tetrahydropyran-4-carboxylate], the IC50 [1] was < 100 nM and the IC50 [2] was 100 to 500 nM.

In the case of `CN(c1nc(N2CC(OC(=O)C3CCOCC3)C2)nc2c1[S+]([O-])CC2)C1CCOCC1` (stereo not shown) [Example 23, [1-[4-[methyl(tetra-hydropyran-4-yl)amino]-5-oxido-6,7-dihydro-thieno[3,2-d]pyrimidin-5-ium-2-yl]azetidin-3-yl] tetrahydropyran-4-carboxylate], the IC50 [1] is reported as < 100 nM and the IC50 [2] is reported as < 100 nM.

In the case of `CN(c1nc(N2CC(OC(=O)c3cnsc3)C2)nc2c1[S+]([O-])CC2)C1CCOCC1` (stereo in doubt) [Example 4, [1-[(5R)-4-[Methyl(tetrahydropyran-4-yl)amino]-5-oxido-6,7-dihydrothieno[3,2-d]pyrimidin-5-ium-2-yl]azetidin-3-yl] isothiazole-4-carboxylate], the IC50 [1] is reported as < 100 nM and the IC50 [2] is reported as < 100 nM.

With `CC(=O)c1ccc(C(=O)OC2CN(c3nc4c(c(N(C)C5CCOCC5)n3)[S+](O)CC4)C2)cc1` (stereo not shown) [Example 48, [1-[4-[methyl(tetra-hydropyran-4-yl)amino]-5-oxido-6,7-dihydro-thieno[3,2-d]pyrimidin-5-ium-2-yl]azetidin-3-yl] 4-acetylbenzoate] the IC50 [1] was < 100 nM and the IC50 [2] was < 100 nM.

`CCn1cc(C(=O)OC2CN(c3nc4c(c(N(C)C5CCOCC5)n3)[S+]([O-])CC4)C2)cn1` (stereo not shown) [Example 32, [1-[4-[methyl(tetra-hydropyran-4-yl)amino]-5-oxido-6,7-dihydro-thieno[3,2-d]pyrimidin-5-ium-2-yl]azetidin-3-yl] 1-ethylpyrazole-4-carboxylate] was tested, and the IC50 [1] was < 100 nM and the IC50 [2] was < 100 nM.
